Source: the supplement of paper PMC13380429

Tests used:
Conditions in all cases: 72 h
Caco-2 [1] = test: cell viability relative to DMSO; higher = less toxic
Calu-3 [2] = test: as above
HepG2 [3] = test: as above
U2OS [4] = test: as above
Vero E6 [5] = test: as above
Caco-2 [6] = test: relative viability EC50 (midpoint between 100% and the lowest measured viability); higher = less toxic
Calu-3 [7] = test: as above
HepG2 [8] = test: as above
U2OS [9] = test: as above
Vero E6 [10] = test: as above
Caco-2 [11] = test: drug sensitivity score (DSS) for viability; higher = more toxic; extreme values may be limits of the assay
Calu-3 [12] = test: as above
HepG2 [13] = test: as above
U2OS [14] = test: as above
Vero E6 [15] = test: as above

SMILES	cell viability (Caco-2 [1]; 1 nM) [%]	cell viability (Caco-2 [1]; 10 nM) [%]	cell viability (Caco-2 [1]; 100 nM) [%]	cell viability (Caco-2 [1]; 1000 nM) [%]	cell viability (Caco-2 [1]; 10000 nM) [%]	cell viability (Calu-3 [2]; 1 nM) [%]	cell viability (Calu-3 [2]; 10 nM) [%]	cell viability (Calu-3 [2]; 100 nM) [%]	cell viability (Calu-3 [2]; 1000 nM) [%]	cell viability (Calu-3 [2]; 10000 nM) [%]	cell viability (HepG2 [3]; 1 nM) [%]	cell viability (HepG2 [3]; 10 nM) [%]	cell viability (HepG2 [3]; 100 nM) [%]	cell viability (HepG2 [3]; 1000 nM) [%]	cell viability (HepG2 [3]; 10000 nM) [%]	cell viability (U2OS [4]; 1 nM) [%]	cell viability (U2OS [4]; 10 nM) [%]	cell viability (U2OS [4]; 100 nM) [%]	cell viability (U2OS [4]; 1000 nM) [%]	cell viability (U2OS [4]; 10000 nM) [%]	cell viability (Vero E6 [5]; 1 nM) [%]	cell viability (Vero E6 [5]; 10 nM) [%]	cell viability (Vero E6 [5]; 100 nM) [%]	cell viability (Vero E6 [5]; 1000 nM) [%]	cell viability (Vero E6 [5]; 10000 nM) [%]	relative viability EC50 (Caco-2 [6]) [µM]	relative viability EC50 (Calu-3 [7]) [µM]	relative viability EC50 (HepG2 [8]) [µM]	relative viability EC50 (U2OS [9]) [µM]	relative viability EC50 (Vero E6 [10]) [µM]	drug sensitivity score (Caco-2 [11])	drug sensitivity score (Calu-3 [12])	drug sensitivity score (HepG2 [13])	drug sensitivity score (U2OS [14])	drug sensitivity score (Vero E6 [15])
CC(C)N(CCNC(=O)CN1CCCC1=O)C(C)C [pramiracetam]	94.6	93.6	114	96.4	98.9	95.7	103	109	100	103	101	100	97.6	107	104	98.8	93.2	103	95.6	105	93.9	97	94.4	99.7	108	> 10	> 10	> 10	> 10	> 10	0	0	0	0	0
Nc1n[nH]c2nc3ccccc3nc12 [CDK1-5-inhibitor]	101	105	97.8	96.2	104	98.3	102	97.1	86	90.6	102	98.6	107	101	104	86.3	95.2	95.9	100	102	99.8	96.1	100	100	97.4	> 10	> 10	> 10	> 10	> 10	0	1.4	0	0	0
O=C(O)C(F)(F)C(F)(F)C(F)(F)C(F)(F)C(F)(F)C(F)(F)C(F)(F)F [ammonium-perfluorocaprylate]	96	96	107	95.4	103	98	110	100	93.6	99.3	113	105	97.3	99.5	102	104	95.2	101	92.7	104	98.2	99.5	99.8	100	96	> 10	> 10	> 10	> 10	> 10	0	0	0	0	0
C/C=C1\NC(=O)[C@H]2CSSCC/C=C/[C@H](CC(=O)N[C@H](C(C)C)C(=O)N2)OC(=O)[C@H](C(C)C)NC1=O [romidepsin]	104	124	6.6	1.4	0.2	92.5	39.4	8.7	6.3	2.5	87.1	31.9	0.5	-0.4	0.1	96.9	55.5	5.6	0.5	0.2	98.1	102	87.8	0.1	-0.1	0.0451	0.0068	0.0052	0.0117	0.217	28.5	37	39.4	35.1	20
CSc1ccc([C@H]2CN3CCC[C@H]3c3ccccc32)cc1 (racemic) [McN-5652-(+/-)]	92.2	100	96.1	103	98.7	102	101	106	84.9	105	102	89.9	98.5	90.3	105	97.8	105	96.8	105	102	99.6	102	102	96.3	104	> 10	> 10	> 10	> 10	> 10	0	0	0	0	0
O=C(NCCN1CCOCC1)c1ccc(Cl)cc1 [moclobemide]	88.4	99.2	90.7	88.9	94.1	93.5	103	92.9	103	106	99.4	94.4	108	98.3	103	92.6	98.9	96.3	103	106	98.5	93.3	98.5	95.9	110	> 10	> 10	> 10	> 10	> 10	0	0	0	0	0
